Here are results for six compounds from paper PMC8662950, “Quantitative Determination and Toxicity Evaluation of Aristolochic Acid Analogues in Asarum heterotropoides F. Schmidt (Xixin) and Traditional Chinese Patent Medicines” (Frontiers in Pharmacology, 2021).

For data set [1], the system named is hepatocyte cells of ICR mice. Briefly: Comet assay (DNA damage), hepatocyte cells. It is filed as in vivo. To be noted: EMS 577.6 mg/kg; for Liver Olive Tail Moment / Liver Tail DNA%: AA analogues 20.0 mg/kg, three consecutive days, 5 animals/group, 100 cells; for DNA damage in hepatocyte cells (comet shape): AA analogues 20 mg/kg, three days. As for the experimental part: (§1) ICR mice were separated into seven groups (n = 5 for each group) and administrated with saline, EMS (577.6 mg/kg), AA I (20 mg/kg), AA II (20 mg/kg), AA IIIa (20 mg/kg), AA IVa (20 mg/kg), or AL I (20 mg/kg) for three consecutive days, respectively. After anesthetization and perfusion, renal and liver tissues were obtained. Comet analysis was performed 2–6 h after the last […] and the processes were according to Günter Speit ([Speit and Rothfuss, 2012]). The Comet Assay software project (CASP) (V1.2.3) was used to analyze the fraction of tail DNA and the Olive Tail Moment. A total of one hundred cells from kidney or liver tissues of each animal were analyzed. The mean, standard deviation (SD) of tail DNA%, and the median of olive tail moment were calculated. Results were analyzed using SPSS 17.0 by one-way analysis of variance (ANOVA) followed by the least significance difference (LSD) test. The significant differences between the groups were tested and defined by p-value < 0.05.
(§2) Mice (n=35) were randomly divided into seven groups, with 5 mice in each group. Then they were administered with normal saline (NS), ethyl methanesulfonate (EMS) (577.6 mg/kg), and aristolochic acid analogues (20.0 mg/kg) for three days, respectively. After the final administration, mice were perfused and euthanized to obtain the renal and liver tissues.
(§3) The removed renal and liver tissues were minced into pieces and dispersed with 10 mL DMEM high-sugar culture medium. The mixture was filtered through a 200-mesh sieve and centrifuged at 800 rpm for 5 min. The supernatant was discarded and the cells were resuspended and centrifuged again. Then the cells were cultured in DMEM containing 10% FBS.
(§4) 25 μL single-cell suspension (5000 cells) with 75 μL of 0.7% low melting point agarose gel were mixed and 100 μL of the mixture was dropped on the bottom layer of agarose gel. The prepared glass slides were stored in the refrigerator at 4℃ for 4 min, and then dipped into the alkaline cell lysates for 2 h at 4℃. Slides were removed and rinsed with PBS buffer for 3 times.
(§5) The alkaline electrophoresis buffer (pH 13.0) precooled at 4℃ was put into the electrophoresis tank. The tank was covered to avoid light and remained static at 4℃ for 20 min. The voltage was set at 0.8 V/cm, and the current was 300 mA during the electrophoreses.
(§6) After 20 min, the slides were removed and the excess salt was washed away. The slides were washed by 0.4 mol/L precooled Tris-HCl buffer for 5 min and then dehydrated by ethanol for 15 min. Then the slides were stained with 30 μL PI staining solution (2 μg/mL) in the dark for 15 s, and washed in water several times.
(§7) A fluorescence microscope was used for visualization of DNA damage. A total of 100 randomly selected cells from kidney or liver tissues were analyzed. Parameters such as tail DNA percentage and Olive Tail Moment were calculated by the Comet Assay Software Project (CASP, V1.2.3).

In data set [2] the test system is HK-2 cells. Nature of the data set: cells. The data set is classed as cell-based, human. As to conditions: for IC50: Homo sapiens; for Cell viability: HK-2, 1,000 μM, 24 or 48 h. The protocol:
Cytotoxicity analysis was determined using the Cell Counting kit 8 (CCK8) (Bioss, China). HK-2 was cultured in DMEM/F12 (containing 10% fetal bovine serum, 100 U/ml penicillin, and 100 μg/ml streptomycin; Gibco, Invitrogen) at 37°C in 5% carbon dioxide incubator. The cells were maintained at 80% confluency and the medium was replaced every 3 days for routine cultivation. HK-2 cells (8,000 cells/well) were seeded in 96-well plates overnight. The cells were then treated with analogues of AA for 24 or 48 h at different concentrations (6.8, 27.0, 54.0, 108.0, 216.0, and 432.0 μM for AA I; 12.5, 25.0, 100.0, 200.0, 400.0, and 800.0 μM for AA II; 15.6, 62.5, 125.0, 250.0, 500.0, and 1000.0 μM for AA IIIa; 15.6, 31.3, 62.5, 125.0, 500.0, and 1,000.0 μM for AA IVa; 8.0, 16.0, 32.0, 64.0, 128.0, and 256.0 μM for AL I). Subsequently, the cells were incubated with 10% CCK8 solution for another 2 h. […] The absorbance (OD) of each well was measured with a spectrophotometer (Spark; Tecan, Switzerland) at 450 nm and the IC50 values were obtained by fitting the curve through nonlinear regression with GraphPad Prism 7.0 (GraphPad Software, CA, United States).

Data set [3] has as its system ICR mice. Nature of the data set: In vivo acute toxicity, single oral gavage dose, 14 days. As to conditions: for Histopathology of liver tissues: AA I 20 and 40 mg/kg; for Serum AST, ALT, ALP, TBIL, TBA, CREA, BUN vs control group: single oral dose, day 14, AA I at 20 and 40 mg/kg. As for the experimental part:
The animal experiments were approved by the Research Ethics Committee of the Institute of Chinese Materia Medica, China Academy of Chinese Medical Sciences (ICMM, CACMS). The experiment was carried out according to ethical guidelines and regulations for the use of laboratory animals. A total of 160 ICR mice were randomly divided into 16 groups, each comprising 10 mice (5 males and 5 females). The drugs were administered in a single dose by oral gavage and the dose volume was 0.2 ml/10 g. The control group was treated with 0.5% CMC-Na. Other groups received AA I, AA II, AA IIIa, AA IVa, or AL I, at concentrations of 10, 20, and 40 mg/kg, respectively. Animal weights were recorded every two days. The animals were fasted overnight before experiments and sacrificed on day 14. Blood samples were collected and centrifuged for 15 min at 3,500×g. AST, ALT, ALP, CREA, BUN, TBA, and TBIL levels in plasma were examined. SPSS 17.0 (IBM Corp., United States) was used for the statistical and significance analyses. The renal and liver tissues were embedded and stained with H&E. Histological images were obtained through Olympus BX63 (Olympus Corporation, Japan) at a magnification of ×200.

For data set [4], the system named is renal cells of ICR mice. Briefly: Comet assay (DNA damage), renal cells. The data set is classed as in vivo. As to conditions: EMS 577.6 mg/kg; for Kidney Olive Tail Moment / Kidney Tail DNA%: AA analogues 20.0 mg/kg, three consecutive days, 5 animals/group, 100 cells; for DNA damage in renal cells (comet shape): AA analogues 20 mg/kg, three days. As for the experimental part:
as §1, §2, §3, §4, §5, §6, §7

[5] abbreviates: 10, 20, 40 mg/kg single oral dose, 14 days.
Where [6] appears, read: 10, 20, 40 mg/kg single oral dose, male and female mice.
Where [7] appears, read: 10, 20 mg/kg single oral dose, 14 days.

Read-outs that look alike come from different tables or passages of the source.

In the case of `COc1cccc2c1cc1c3c(cc4c(c32)OCO4)C(=O)N1` [AL I, aristolactam I], in data set [1], the “Liver Olive Tail Moment” value was 0.74±0.29 μm, the “Liver Tail DNA%” value stood at 3.26±0.52% and the “DNA damage in hepatocyte cells (comet shape)” value (“DNA damage in hepatocyte cells” for short) is listed as “No DNA damage”. Besides, in data set [2] (HK-2, 24 h, read-out: IC50), the IC50 is over 256 µM. Also, the IC50 in data set [2] (HK-2, 48 h, read-out: IC50) is 37.1 µM. The “Serum AST, ALT, ALP activity” value in data set [3] (10 mg/kg) is “decreased AST, ALT, and ALP activity”. For the same compound, the Nephrotoxicity or hepatotoxicity result in data set [3] (40 mg/kg) is reported as “No distinct nephrotoxicity or hepatotoxicity”. For the same compound, the Death result in data set [3] (setting [5]) is reported as “no death”. The “Body weight change vs control group” value in data set [3] (setting [6]) was “no distinct changes in body weight”. Further, the “Histopathology of liver tissues” value in data set [3] (H&E) is recorded as “No pathological changes”. For the same compound, the “Serum AST, ALT, ALP, TBIL, TBA, CREA, BUN vs control group” value (from here on “Serum AST, ALT, ALP … vs control group”) in data set [3] was “no significant difference”. For the same compound, in data set [4], the “Kidney Olive Tail Moment” value was 0.66±0.21 μm, the “Kidney Tail DNA%” value is reported as 3.12±0.33% and the “DNA damage in renal cells (comet shape)” value was “No DNA damage”.

For `COc1cccc2c1cc([N+](=O)[O-])c1c(C(=O)O)cc3c(c12)OCO3` [AA I, aristolochic acid I], in data set [1], the “Liver Olive Tail Moment” value was 0.88±0.14 μm, the “Liver Tail DNA%” value is reported as 2.92±0.54% and the “DNA damage in hepatocyte cells” value was “no DNA damage”. This compound returned a half-maximal inhibitory concentration (IC50) in data set [2] (HK-2, 24 h) of 197 µM. The compound further displayed an IC50 in data set [2] (HK-2, 48 h) of 76.7 µM. In addition, the Survival rate in data set [3] (40 mg/kg single oral dose, 14 days, n = 10, deaths on days 4, 5 and 6) stood at 30%. The “Histopathology of renal tissues” value in data set [3] (40 mg/kg, H&E) is “Significant lesions”. The Death entry in data set [3] (setting [7]) is reported as “no death”. The “Body weight change vs control group” value in data set [3] (setting [6]) was “remarkable reduction of body weight”. Further, the “Histopathology of liver tissues” value in data set [3] (H&E) is listed as “no corresponding pathological changes”. Also, the “Serum AST, ALT, ALP … vs control group” value in data set [3] is “different levels of changes in serum levels of TBIL, ALP, BUN, and CREA”. In data set [4], the “Kidney Olive Tail Moment” value is recorded as 7.45 ± 1.94 μm, the “Kidney Tail DNA%” value was 15.39 ± 1.75% and the “DNA damage in renal cells (comet shape)” value was “evident comet shape”.

Take `CCOS(C)(=O)=O` [EMS, ethyl methanesulfonate, reference compound]: in data set [1], the “Liver Olive Tail Moment” value is 33.60±6.11 μm, the “Liver Tail DNA%” value turned out to be 55.18±6.23 % and the “DNA damage in hepatocyte cells” value is “significant comet tailing”. Also, in data set [4], the “Kidney Olive Tail Moment” value was 23.01±4.09 μm, the “Kidney Tail DNA%” value is given as 40.97±7.55 % and the “DNA damage in renal cells (comet shape)” value is reported as “significant comet tailing”.

Regarding `O=C(O)c1cc2c(c3c1c([N+](=O)[O-])cc1ccccc13)OCO2` [AA II, aristolochic acid II], in data set [1], the “Liver Olive Tail Moment” value came to 0.89±0.22 μm, the “Liver Tail DNA%” value came to 3.37±0.42% and the “DNA damage in hepatocyte cells” value is listed as “No DNA damage”. Moreover, in data set [2] (HK-2, 24 h, read-out: IC50), the IC50 is over 800 µM. For the same compound, in data set [2] (HK-2, 48 h, read-out: IC50), the IC50 was 306 µM. Further, the Nephrotoxicity or hepatotoxicity entry in data set [3] (40 mg/kg) is given as “No distinct nephrotoxicity or hepatotoxicity”. This compound also gave a Mice died in data set [3] (40 mg/kg single oral dose, n = 10, death on day 8) of 10%. Also, the Body weight change result in data set [3] (40 mg/kg, male and female mice, first 10 days) is listed as “Slight weight loss”. Moreover, the Death result in data set [3] (setting [7]) was “no death”. Also, in data set [3], the “Serum AST, ALT, ALP … vs control group” value is reported as “no significant difference”. Besides, in data set [4], the “Kidney Olive Tail Moment” value is listed as 0.78±0.30 μm, the “Kidney Tail DNA%” value amounted to 3.08±0.25% and the “DNA damage in renal cells (comet shape)” value is listed as “No DNA damage”.

Consider `O=C(O)c1cc2c(c3c1c([N+](=O)[O-])cc1ccc(O)cc13)OCO2` [AA IIIa, aristolochic acid IIIa], for which, in data set [1], the “Liver Olive Tail Moment” value is given as 0.92±0.20 μm, the “Liver Tail DNA%” value is given as 3.09±0.47% and the “DNA damage in hepatocyte cells” value is listed as “No DNA damage”. The Cell viability in data set [2] is given as ≥ 50 % of control. Further, in data set [3] (40 mg/kg), the Nephrotoxicity or hepatotoxicity entry was “No distinct nephrotoxicity or hepatotoxicity”. Further, the Death entry in data set [3] (setting [5]) is “no death”. In addition, in data set [3] (setting [6]), the “Body weight change vs control group” value was “no distinct changes in body weight”. Besides, in data set [3], the “Serum AST, ALT, ALP … vs control group” value is listed as “no significant difference”. Also, in data set [4], the “Kidney Olive Tail Moment” value stood at 0.61±0.16 μm, the “Kidney Tail DNA%” value is 2.60±0.69% and the “DNA damage in renal cells (comet shape)” value is on record as “No DNA damage”.

Regarding `COc1cc(O)cc2c1cc([N+](=O)[O-])c1c(C(=O)O)cc3c(c12)OCO3` [AA IVa, aristolochic acid IVa], in data set [1], the “Liver Olive Tail Moment” value was 0.81±0.14 μm, the “Liver Tail DNA%” value is 2.98±0.22% and the “DNA damage in hepatocyte cells” value is “No DNA damage”. Moreover, the Cell viability in data set [2] was ≥ 50 % of control. Also, in data set [3] (40 mg/kg), the Nephrotoxicity or hepatotoxicity entry is listed as “No distinct nephrotoxicity or hepatotoxicity”. Further, the Body weight change result in data set [3] (40 mg/kg, female mice, day 5, returned on day 7) is reported as “drastic weight loss”. The Death entry in data set [3] (setting [5]) is “no death”. Besides, in data set [3] (setting [6]), the “Body weight change vs control group” value was “no distinct changes in body weight”. Also, the “Serum AST, ALT, ALP … vs control group” value in data set [3] was “no significant difference”. Besides, in data set [4], the “Kidney Olive Tail Moment” value worked out at 0.57±0.22 μm, the “Kidney Tail DNA%” value was found to be 2.80±0.99% and the “DNA damage in renal cells (comet shape)” value was “No DNA damage”.

By IC50 is commonly meant the concentration that gives 50% inhibition.
